Test results as given in article PMC4544649, “A psychrotolerant strain of Serratia marcescens (MTCC 4822) produces laccase at wide temperature and pH range” (AMB Express, 2015).

Tested on: laccase
Conditions: 0.10 M citrate-phosphate buffer pH 2.5, room temperature; ABTS 0.05-1.00 mM; partially purified enzyme

Question: How did the Km turn out when `CCn1c(=NN=c2sc3cc(S(=O)(=O)O)ccc3n2CC)sc2cc(S(=O)(=O)O)ccc21` [ABTS, 2, 2'-azino-bis (3-ethylbenzothiazoline-6-sulphonic acid)] was run?
Answer: Its Km is 100 µM.
